Test results reported in patent publication US9150575B2, “Piperidinylpyrazolopyridine derivative” (Daiichi Sankyo Company, Limited, priority 2012, dated 2015).

Target: T1, LCAT (Homo sapiens, UniProt P04180)
T1 construct: The obtained fraction was dialyzed against phosphate-buffered saline (pH 7.4) and used as an enzyme source and an acceptor for LCAT; from tissue; host or cells: HDL3 fraction (1.125<specific gravity<1.210 g/mL) of plasma from a healthy person
T1 sequence (P04180 25-440): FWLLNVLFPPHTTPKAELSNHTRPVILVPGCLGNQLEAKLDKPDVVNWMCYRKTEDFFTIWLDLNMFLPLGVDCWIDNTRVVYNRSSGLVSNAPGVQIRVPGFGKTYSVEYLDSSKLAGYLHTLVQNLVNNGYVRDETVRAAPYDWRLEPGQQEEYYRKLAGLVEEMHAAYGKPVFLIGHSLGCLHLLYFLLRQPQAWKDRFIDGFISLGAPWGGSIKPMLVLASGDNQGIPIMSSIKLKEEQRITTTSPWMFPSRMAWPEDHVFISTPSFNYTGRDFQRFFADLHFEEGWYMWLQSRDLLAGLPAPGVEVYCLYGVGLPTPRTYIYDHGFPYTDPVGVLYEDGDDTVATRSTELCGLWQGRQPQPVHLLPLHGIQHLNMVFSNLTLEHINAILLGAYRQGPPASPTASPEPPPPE
Test: LCAT Activity Measurement (In Vitro)
Assay type: biochemical
Details: EC50 of LCAT activation; HDL3 fraction from plasma of a healthy person as enzyme source and acceptor; [14C]cholesterol; 37° C., approximately 16 hours
Summary of the method: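 Human plasma HDL3 (1 mg/mL, PBS pH 7.4) served as enzyme and acceptor with [14C]cholesterol, 0.5 mM DTNB, 12.5 mM mercaptoethanol and 0.6% BSA; compounds in DMSO, incubated ~16 h at 37 °C. Cholesterol oleate radioactivity quantified after extraction and TLC; EC50 of activation fitted relative to no-drug control.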

O=C1CC(O)(C(F)(F)F)c2c(C3CCN(c4cc(C(F)(F)F)ncn4)CC3)n[nH]c2N1 (centres unmarked) [Example 45, 4-Hydroxy-4-(trifluoromethyl)-3-{1-[6-(trifluoromethyl)pyrimidin-4-yl]piperidin-4-yl}-1,4,5,7-tetrahydro-6H-pyrazolo[3,4-b]pyridin-6-one]
EC50: 140 nM

O=C1CC(O)(C(F)(F)F)c2c(C3CCN(c4ccc(OC(F)(F)F)cn4)CC3)n[nH]c2N1 (centres unmarked) [Example 76, 4-Hydroxy-3-{1-[5-(trifluoromethoxy)pyridin-2-yl]piperidin-4-yl}-4-(trifluoromethyl)-1,4,5,7-tetrahydro-6H-pyrazolo[3,4-b]pyridin-6-one]
EC50: 18 nM

O=C1CC(O)(C(F)(F)F)c2c(C3CCN(c4nc(Cl)ccc4C(F)(F)F)CC3)n[nH]c2N1 (centres unmarked) [Compound 98-b, 3-{1-[6-chloro-3-(trifluoromethyl)pyridin-2-yl]piperidin-4-yl}-4-hydroxy-4-(trifluoromethyl)-1,4,5,7-tetrahydro-6H-pyrazolo[3,4-b]pyridin-6-one]
EC50: 510 nM

O=C1CC(O)(C(F)(F)F)c2c(C3CCN(c4ncc(C(F)(F)F)cc4F)CC3)n[nH]c2N1 (centres unmarked) [Example 96, 3-{1-[3-Fluoro-5-(trifluoromethyl)pyridin-2-yl]piperidin-4-yl}-4-hydroxy-4-(trifluoromethyl)-1,4,5,7-tetrahydro-6H-pyrazolo[3,4-b]pyridin-6-one]
EC50: 220 nM

O=C1CC(O)(C(F)(F)F)c2c(C3CCN(c4ccc(C(F)(F)F)cn4)CC3)n[nH]c2N1 (single isomer, unassigned; (-)) [Compound 49-1, (−)-4-Hydroxy-4-(trifluoromethyl)-3-{1-[5-(trifluoromethyl)pyridin-2-yl]piperidin-4-yl}-1,4,5,7-tetrahydro-6H-pyrazolo[3,4-b]pyridin-6-one]
EC50: 18 nM

O=C1CC(O)(C(F)(F)F)c2c(C3CCN(c4ccc(Cl)cn4)CC3)n[nH]c2N1 (centres unmarked) [Example 14, 3-[1-(5-Chloropyridin-2-yl)piperidin-4-yl]-4-hydroxy-4-(trifluoromethyl)-1,4,5,7-tetrahydro-6H-pyrazolo[3,4-b]pyridin-6-one]
EC50: 86 nM

O=C1CC(O)(C(F)(F)F)c2c(C3CCN(c4nccs4)CC3)n[nH]c2N1 (centres unmarked) [Example 29, 4-Hydroxy-3-[1-(1,3-thiazol-2-yl)piperidin-4-yl]-4-(trifluoromethyl)-1,4,5,7-tetrahydro-6H-pyrazolo[3,4-b]pyridin-6-one]
EC50: 1880 nM

O=C1CC(O)(C(F)(F)F)c2c(C3CCN(c4nc5ccccc5o4)CC3)n[nH]c2N1 (centres unmarked) [Example 24, 3-[1-(1,3-Benzoxazol-2-yl)piperidin-4-yl]-4-hydroxy-4-(trifluoromethyl)-1,4,5,7-tetrahydro-6H-pyrazolo[3,4-b]pyridin-6-one]
EC50: 150 nM

N#Cc1cncc(N2CCC(c3n[nH]c4c3C(O)(C(F)(F)F)CC(=O)N4)CC2)c1 (centres unmarked) [Example 37, 5-{4-[4-Hydroxy-6-oxo-4-(trifluoromethyl)-4,5,6,7-tetrahydro-1H-pyrazolo[3,4-b]pyridin-3-yl]piperidin-1-yl}pyridine-3-carbonitrile]
EC50: 71 nM

O=C1CC(O)(C(F)(F)F)c2c(C3CCN(c4ncc(C(F)(F)F)cn4)CC3)n[nH]c2N1 (centres unmarked) [Example 44, 4-Hydroxy-4-(trifluoromethyl)-3-{1-[5-(trifluoromethyl)pyrimidin-2-yl]piperidin-4-yl}-1,4,5,7-tetrahydro-6H-pyrazolo[3,4-b]pyridin-6-one]
EC50: 360 nM

O=C1CC(O)(C(F)(F)F)c2c(C3CCN(c4ccc(C(F)(F)F)cn4)CC3)n[nH]c2N1 (single isomer, unassigned; (+)) [Compound 49-2, (+)-4-hydroxy-4-(trifluoromethyl)-3-{1-[5-(trifluoromethyl)pyridin-2-yl]piperidin-4-yl}-1,4,5,7-tetrahydro-6H-pyrazolo[3,4-b]pyridin-6-one]
EC50: 3770 nM

COC(=O)c1nc(N2CCC(c3n[nH]c4c3C(O)(C(F)(F)F)CC(=O)N4)CC2)ccc1C(F)(F)F (centres unmarked) [Example 77, Methyl 6-{4-[4-hydroxy-6-oxo-4-(trifluoromethyl)-4,5,6,7-tetrahydro-1H-pyrazolo[3,4-b]pyridin-3-yl]piperidin-1-yl}-3-(trifluoromethyl)pyridine-2-carboxylate]
EC50: 58 nM

CC(C)Oc1ccc(N2CCC(c3n[nH]c4c3C(O)(C(F)(F)F)CC(=O)N4)CC2)nc1 (centres unmarked) [Example 52, 4-Hydroxy-3-{1-[5-(propan-2-yloxy)pyridin-2-yl]piperidin-4-yl}-4-(trifluoromethyl)-1,4,5,7-tetrahydro-6H-pyrazolo[3,4-b]pyridin-6-one]
EC50: 67 nM

CCOc1ccc(N2CCC(c3n[nH]c4c3C(O)(C(F)(F)F)CC(=O)N4)CC2)cc1 (centres unmarked) [Example 59, 3-[1-(4-Ethoxyphenyl)piperidin-4-yl]-4-hydroxy-4-(trifluoromethyl)-1,4,5,7-tetrahydro-6H-pyrazolo[3,4-b]pyridin-6-one]
EC50: 260 nM

O=C1CC(O)(C(F)(F)F)c2c(C3CCN(c4nccc(C(F)(F)F)n4)CC3)n[nH]c2N1 (centres unmarked) [Example 80, 4-Hydroxy-4-(trifluoromethyl)-3-{1-[4-(trifluoromethyl)pyrimidin-2-yl]piperidin-4-yl}-1,4,5,7-tetrahydro-6H-pyrazolo[3,4-b]pyridin-6-one]
EC50: 380 nM

O=C1CC(O)(C(F)(F)F)c2c(C3CCN(c4cc(C(=O)OCc5ccccc5)c(C(F)(F)F)cn4)CC3)n[nH]c2N1 (centres unmarked) [Example 85, Benzyl 2-[4-(4-hydroxy-6-oxo-4-(trifluoromethyl)-4,5,6,7-tetrahydro-1H-pyrazolo[3,4-b]pyridin-3-yl)piperidin-1-yl]-5-(trifluoromethyl)pyridine-4-carboxylate]
EC50: 13 nM

Cc1nc(N2CCC(c3n[nH]c4c3C(O)(C(F)(F)F)CC(=O)N4)CC2)cc(C(F)(F)F)n1 (centres unmarked) [Example 87, 4-Hydroxy-3-{1-[2-methyl-6-(trifluoromethyl)pyrimidin-4-yl]piperidin-4-yl}-4-(trifluoromethyl)-1,4,5,7-tetrahydro-6H-pyrazolo[3,4-b]pyridin-6-one]
EC50: 300 nM

CCc1ccc(N2CCC(c3n[nH]c4c3C(O)(C(F)(F)F)CC(=O)N4)CC2)nc1 (centres unmarked) [Example 73, 3-[1-(5-Ethylpyridin-2-yl)piperidin-4-yl]-4-hydroxy-4-(trifluoromethyl)-1,4,5,7-tetrahydro-6H-pyrazolo[3,4-b]pyridin-6-one]
EC50: 83 nM

COc1cccc(N2CCC(c3n[nH]c4c3C(O)(C(F)(F)F)CC(=O)N4)CC2)n1 (centres unmarked) [Example 12, 4-Hydroxy-3-[1-(6-methoxypyridin-2-yl)piperidin-4-yl]-4-(trifluoromethyl)-1,4,5,7-tetrahydro-6H-pyrazolo[3,4-b]pyridin-6-one]
EC50: 54 nM

O=C1CC(O)(C(F)(F)F)c2c(C3CCN(c4cc(I)c(C(F)(F)F)cn4)CC3)n[nH]c2N1 (single isomer, unassigned) [Compound 103-2, 4-hydroxy-3-{1-[4-iodo-5-(trifluoromethyl)pyridin-2-yl]piperidin-4-yl}-4-(trifluoromethyl)-1,4,5,7-tetrahydro-6H-pyrazolo[3,4-b]pyridin-6-one]
EC50: 530 nM

CN(C)c1nc(N2CCC(c3n[nH]c4c3C(O)(C(F)(F)F)CC(=O)N4)CC2)cc(C(F)(F)F)n1 (centres unmarked) [Example 93, 3-{1-[2-(Dimethylamino)-6-(trifluoromethyl)pyrimidin-4-yl]piperidin-4-yl}-4-hydroxy-4-(trifluoromethyl)-1,4,5,7-tetrahydro-6H-pyrazolo[3,4-b]pyridin-6-one]
EC50: 84 nM

O=C1CC(O)(C(F)(F)F)c2c(C3CCN(c4ncccc4C(F)(F)F)CC3)n[nH]c2N1 (centres unmarked) [Example 9, 4-Hydroxy-4-(trifluoromethyl)-3-{1-[3-(trifluoromethyl)pyridin-2-yl]piperidin-4-yl}-1,4,5,7-tetrahydro-6H-pyrazolo[3,4-b]pyridin-6-one]
EC50: 1150 nM

CCOC(=O)c1oc(N2CCC(c3n[nH]c4c3C(O)(C(F)(F)F)CC(=O)N4)CC2)nc1C(F)(F)F (centres unmarked) [Example 91, Ethyl 2-{4-[4-hydroxy-6-oxo-4-(trifluoromethyl)-4,5,6,7-tetrahydro-1H-pyrazolo[3,4-b]pyridin-3-yl]piperidin-1-yl}-4-(trifluoromethyl)-1,3-oxazole-5-carboxylate]
EC50: 77 nM

N#Cc1cnc(N2CCC(c3n[nH]c4c3C(O)(C(F)(F)F)CC(=O)N4)CC2)c(C(F)(F)F)c1 (centres unmarked) [Example 104, 6-{4-[4-Hydroxy-6-oxo-4-(trifluoromethyl)-4,5,6,7-tetrahydro-1H-pyrazolo[3,4-b]pyridin-3-yl]piperidin-1-yl}-5-(trifluoromethyl)pyridine-3-carbonitrile]
EC50: 1100 nM

O=C1CC(O)(C(F)(F)F)c2c(C3CCN(c4ccc(OC5CCC5)nc4)CC3)n[nH]c2N1 (centres unmarked) [Example 61, 3-{1-[6-(Cyclobutoxy)pyridin-3-yl]piperidin-4-yl}-4-hydroxy-4-(trifluoromethyl)-1,4,5,7-tetrahydro-6H-pyrazolo[3,4-b]pyridin-6-one]
EC50: 100 nM

O=C1CC(O)(C(F)(F)F)c2c(C3CCN(c4ncccc4Cl)CC3)n[nH]c2N1 (centres unmarked) [Example 11, 3-[1-(3-Chloropyridin-2-yl)piperidin-4-yl]-4-hydroxy-4-(trifluoromethyl)-1,4,5,7-tetrahydro-6H-pyrazolo[3,4-b]pyridin-6-one]
EC50: 3090 nM
